Test results from publication PMC6470533, “Structure–Activity Study, Characterization, and Mechanism of Action of an Antimicrobial Peptoid D2 and Its D- and L-Peptide Analogues” (Molecules, 2019).
Values after ≈ are worked out from the molar mass of the structure shown. Non-standard residues stand in square brackets, D forms with d. Residues, ends and D or L forms follow the SMILES beside them. N(1-naphthylmethyl)Gly = O=C(O)CNCc1cccc2ccccc12; d1Nal = N[C@H](Cc1cccc2ccccc12)C(=O)O; N(4-MeBn)Gly = Cc1ccc(CNCC(=O)O)cc1; dNle = CCCC[C@@H](N)C(=O)O; NBuGly = CCCCNCC(=O)O; Nlys = NCCCCNCC(=O)O

Experiments:
[1] = system: DNA synthesis in MRSP E104; test: Macromolecule biosynthesis assay, DNA (3H-thymidine); assay type: cell-based, Staphylococcus pseudintermedius; conditions: 0.5× MIC, 20 min incubation, MRSP E104, 3H-thymidine; means of two experiments
Protocol: (§1) The effect on DNA and cell wall synthesis was investigated after 20 min of incubation of MRSP E104 with the precursors ^3H-thymidine and ^3H-glucosamine hydrochloride, respectively, as previously reported by Ling et al.. Following macromolecule precipitation, radioactivity was counted using scintillation fluid. Incorporation of ^3H- or ^14C-labeled thymidine has been used to investigate DNA replication and transcriptional activity during the cell cycle; ^3H-glucosamine hydrochloride has been used in a mode of action study for the antimicrobial peptide plectasin, which targets the cell wall precursor lipid II [44].
(§2) Macromolecules (DNA and cell wall) biosynthesis rates were measured using strain MRSP E104 following a protocol adapted from Ling et al.. Briefly, overnight culture of E104 was diluted 1:100 in MHB and freshly grown up to OD 0.2 at 600 nm. Grown cells were pelleted down by centrifugation and then resuspended in fresh MHB medium followed by incubation for 20 min on a dry heat-bath with D2 or analogues or nisin and radiolabeled precursor: (50 µCi) ^3H-Thymidine (PerkinElmer) and (5 µCi) ^3H-glucosamine hydrochloride per mL for DNA and cell wall, respectively. A positive control without antimicrobials was maintained that corresponds to 100% synthesis rate. After 20 min of incubation, samples were precipitated with equal volume of cold 30% trichloroactic acid (TCA Sigma, Søborg, Denmark) on ice. After 15 to 30 min of incubation on ice, precipitates were filtered on a membrane filter and subsequently washed twice with cold 15% TCA and twice with cold water using a vacuum manifold. Next, filters were air dried overnight and then moved to 10 mL scintillation vials. Finally, 3 mL scintillation fluid was added to each vial and ^3H count was taken in Beckman Coulter LS6500 liquid scintillation counter for 1 min. The radioactive counts of the control samples with no antimicrobial exposure were considered to have 100% precursor incorporation and macromolecule synthesis. The percentage rates of macromolecule synthesis in the antimicrobial-exposed samples were calculated compared to control. Each experiment was performed twice with a technical replicate, and the average rates of synthesis were plotted.

[2] = system: cell wall synthesis in MRSP E104; test: Macromolecule biosynthesis assay, cell wall (3H-glucosamine hydrochloride); assay type: cell-based, Staphylococcus pseudintermedius; conditions: 0.5× MIC, 20 min incubation, MRSP E104, 3H-glucosamine hydrochloride; means of two experiments
Protocol: as §1, §2

[3] = system: S. pseudintermedius; test: MIC against canine clinical S. pseudintermedius strains (Table S2); assay type: cell-based, Staphylococcus pseudintermedius; conditions: for MIC S. pseudintermedius 22963: 22963, 3 B9, dog, 2007; for MIC S. pseudintermedius 26071: 26071, 11 E5, dog; for MIC S. pseudintermedius 26071 / MIC S. pseudintermedius 26092-2 / MIC S. pseudintermedius 33228 / MIC S. pseudintermedius 37526-1 / MIC S. pseudintermedius 37535-1: skin; for MIC S. pseudintermedius 26071 / MIC S. pseudintermedius 26092-2: 2009; for MIC S. pseudintermedius 26092-2: 26092-2, 11 E4, dog; for MIC S. pseudintermedius 26959: 26959, 15 F8, dog, 2010; for MIC S. pseudintermedius 26959 / MIC S. pseudintermedius 27364: wound; for MIC S. pseudintermedius 27364: 27364, 17 A7, dog; for MIC S. pseudintermedius 27364 / MIC S. pseudintermedius 27382: 2011; for MIC S. pseudintermedius 27382: 27382, 17 B8, dog; for MIC S. pseudintermedius 27382 / MIC S. pseudintermedius 31524 / MIC S. pseudintermedius 35890: ear; for MIC S. pseudintermedius 31524: 31524, 54 C3, dog, 2013; for MIC S. pseudintermedius 33228: 33228, 55 E2, dog, 2014; for MIC S. pseudintermedius 35890: 35890, 59 B8, dog, 2015; for MIC S. pseudintermedius 37526-1: 37526-1, 65 B4, dog; for MIC S. pseudintermedius 37526-1 / MIC S. pseudintermedius 37535-1: 2016; for MIC S. pseudintermedius 37535-1: 37535-1, 65 B6, dog; for MIC S. pseudintermedius 38637: 38637, 70 C3, dog, wound 2017; for MIC S. pseudintermedius 38820: 38820, 70 F9, dog, urine 2017
Protocol: Similarly, in this study, to assess the degree of selectivity for S. pseudintermedius, D2 and D2D were tested against a collection of S. aureus and MSSP strains (Table S2).
(§3) To explore the antimicrobial activity of the library of peptides and peptidomimetics, they were tested against Acinetobacter baumannii, Corynebacterium auriscanis, Escherichia coli, Enterococcus faecalis, Enterococcus faecium, Klebsiella pneumonia, Proteus mirabilis, and Pseudomonas aeruginosa. Bacteria grown on agar plates for 18 h at 37 °C were diluted to ~1 × 10^8 CFU/mL in Mueller–Hinton broth (MHB). Two-fold serial dilutions of peptides and peptidomimetics in MHB II were inoculated with bacteria to achieve a final concentration of 5 × 10^5 CFU/mL in polypropylene 96 U-well microtiter plates (Almeco, Esbjerg, Denmark), followed by incubation at 37 °C in ambient air for 18 h. The MIC values were determined as the lowest concentration showing no visible bacterial growth. Experiments were performed twice (in technical triplicates) on two different days.

[4] = system: Klebsiella pneumoniae, 26233; assay type: cell-based; conditions: 26233, 18 h
Protocol: as §3

[5] = system: Enterococcus faecium, 30951; assay type: cell-based; conditions: 30951, 18 h
Protocol: as §3

[6] = system: Corynebacterium auriscanis, 31551; assay type: cell-based; conditions: 18 h
Protocol: as §3

[7] = system: Proteus mirabilis, 25178; assay type: cell-based; conditions: 25178, 18 h
Protocol: as §3

[8] = system: Pseudomonas aeruginosa (ATCC 27853); assay type: cell-based; conditions: ATCC 27853, 18 h
Protocol: as §3

[9] = system: Enterococcus faecalis, 27404; assay type: cell-based; conditions: 27404, 18 h
Protocol: as §3

[10] = system: Acinetobacter baumannii, 27065; assay type: cell-based; conditions: 27065, 18 h
Protocol: as §3

[11] = system: Methicillin resistant Staphylococcus pseudintermedius, (C22963); assay type: cell-based; conditions: 18 h
[12] = system: Methicillin sensitive Staphylococcus pseudintermedius (26916); assay type: cell-based; conditions: 18 h
[13] = system: clinical MRSP strain C22963; test: Time–kill kinetics; assay type: cell-based, Staphylococcus pseudintermedius; conditions: for log reduction in time–kill: after 6 h, MRSP C22963, 10^5 CFU/mL in MHB
Protocol: The time–kill experiments of D2 against the methicillin-resistant S. pseudintermedius strain C22963 were performed using an in-house protocol adopted and modified from Blondeau et al.: the bacterium was grown overnight on a blood agar plate. The next day, an inoculum was transferred to MHB and incubated for 2 h at 37 °C to reach exponential growth phase. […] Aliquots were removed at 1 h intervals up to 6h and spotted in triplicate on blood agar plates, and incubated overnight at 37 °C. Colonies were counted and CFU per mL was calculated.

[14] = system: P. aeruginosa isolates from canine infections; assay type: cell-based, Pseudomonas aeruginosa
Protocol: as §3

[15] = system: E. coli, 30235; assay type: cell-based, Escherichia coli; conditions: 30235, 18 h
Protocol: as §3

[16] = system: red blood cell (RBC); conditions: 0.5% RBC suspension in PBS, 1 h, 37 °C, read at 414 nm, normalized to mellitin and PBS, triplicates
Protocol: Briefly, 75 µL of peptide in PBS was mixed with 75 µL of a 0.5% red blood cell (RBC) suspension in PBS, and incubated for 1 h at 37 °C. The hemoglobin release was then measured at 414 nm and normalized, using mellitin as positive control and PBS as negative control. Experiments were done in triplicates.

[17] = system: Staphylococcus aureus (ATCC 29213); assay type: cell-based; conditions: ATCC 29213, 18 h

| SMILES | inhibition of DNA biosynthesis rate [1] [%] | effect on (inhibition of) cell wall synthesis [2] [%] | MIC S. pseudintermedius 22963 [3] [µg/mL] | MIC S. pseudintermedius 26071 [3] [µg/mL] | MIC S. pseudintermedius 26092-2 [3] [µg/mL] | MIC S. pseudintermedius 26959 [3] [µg/mL] | MIC S. pseudintermedius 27364 [3] [µg/mL] | MIC S. pseudintermedius 27382 [3] [µg/mL] | MIC S. pseudintermedius 31524 [3] [µg/mL] | MIC S. pseudintermedius 33228 [3] [µg/mL] | MIC S. pseudintermedius 35890 [3] [µg/mL] | MIC S. pseudintermedius 37526-1 [3] [µg/mL] | MIC S. pseudintermedius 37535-1 [3] [µg/mL] | MIC S. pseudintermedius 38637 [3] [µg/mL] | MIC S. pseudintermedius 38820 [3] [µg/mL] | MIC Klebsiella pneumoniae [4] [µg/mL] | MIC Enterococcus faecium [5] [µg/mL] | MIC Corynebacterium auriscanis [6] [µg/mL] | MIC Proteus mirabilis [7] [µg/mL] | MIC PA [8] [µg/mL] | other results |
| --- | --- | --- | --- | --- | --- | --- | --- | --- | --- | --- | --- | --- | --- | --- | --- | --- | --- | --- | --- | --- | --- |
| CCCCN(CC(N)=O)C(=O)CN(CCCCN)C(=O)CN(Cc1cccc2ccccc12)C(=O)CN(CCCCN)C(=O)CN(Cc1ccc(C)cc1)C(=O)CN(Cc1cccc2ccccc12)C(=O)CN(CCCCN)C(=O)CNCCCCN [D2] (H-[Nlys][Nlys][N(1-naphthylmethyl)Gly][N(4-MeBn)Gly][Nlys][N(1-naphthylmethyl)Gly][Nlys][NBuGly]-NH2) | < 5 | 28 | 1 to 2 | 1 (≈ 0.834 µM) | 1 (≈ 0.834 µM) | 2 (≈ 1.67 µM) | 1 (≈ 0.834 µM) | 1 (≈ 0.834 µM) | 1 (≈ 0.834 µM) | 1 (≈ 0.834 µM) | 1 (≈ 0.834 µM) | 1 (≈ 0.834 µM) | 1 (≈ 0.834 µM) | 1 (≈ 0.834 µM) | 1 (≈ 0.834 µM) | >64 | 16 (≈ 13.3 µM) | 2 (≈ 1.67 µM) | >64 | 16 (≈ 13.3 µM) | MIC Enterococcus faecalis [9]: >64 µg/mL; MIC Acinetobacter baumannii [10]: >64 µg/mL; MIC MRSP [11]: 4 µg/mL (≈ 3.34 µM); MIC MSSP [12]: 2 to 4 µg/mL; log reduction in time–kill ([13]; 1× MIC): 1.5 log; log reduction in time–kill ([13]; 2× MIC): 2.7 log; MIC range, panel of 50 P. aeruginosa isolates ([14]; 50 isolates from canine infections): 3.12 to 12.5 µM; MIC E. coli [15]: 64 µg/mL (≈ 53.4 µM); HA, percentage of hemolysis at 150 µM [16]: 24%; MIC SA [17]: 8 µg/mL (≈ 6.67 µM) |
| CCCC[C@@H](NC(=O)[C@@H](CCCCN)NC(=O)[C@@H](Cc1cccc2ccccc12)NC(=O)[C@@H](CCCCN)NC(=O)[C@@H](Cc1ccccc1)NC(=O)[C@@H](Cc1cccc2ccccc12)NC(=O)[C@@H](CCCCN)NC(=O)[C@H](N)CCCCN)C(N)=O [D2D] (H-[dK][dK][d1Nal][dF][dK][d1Nal][dK][dNle]-NH2) | 37 | 39 | 2 (≈ 1.69 µM) | 1 (≈ 0.844 µM) | 1 (≈ 0.844 µM) | 2 (≈ 1.69 µM) | 2 (≈ 1.69 µM) | 2 (≈ 1.69 µM) | 2 (≈ 1.69 µM) | 2 (≈ 1.69 µM) | 2 (≈ 1.69 µM) | 2 (≈ 1.69 µM) | 2 (≈ 1.69 µM) | 2 (≈ 1.69 µM) | 2 (≈ 1.69 µM) | 8 (≈ 6.75 µM) | 4 (≈ 3.38 µM) | 2 (≈ 1.69 µM) | >64 | 4 (≈ 3.38 µM) | MIC Enterococcus faecalis [9]: 8 µg/mL (≈ 6.75 µM); MIC Acinetobacter baumannii [10]: 16 µg/mL (≈ 13.5 µM); MIC MRSP [11]: 4 µg/mL (≈ 3.38 µM); MIC MSSP [12]: 1 to 4 µg/mL; time to killing to bacterial levels below the detection threshold ([13]; 1× MIC, MRSP C22963): 30 min; MICs against canine P. aeruginosa isolates ([14]; isolates from canine infections, 18 h): 4 µg/mL; MIC E. coli [15]: 4 µg/mL (≈ 3.38 µM); HA, percentage of hemolysis at 150 µM [16]: 35%; MIC SA [17]: 4 µg/mL (≈ 3.38 µM) |
